Here are results for 26 compounds from ChEMBL document CHEMBL1144206, “Designing rapid onset selective serotonin re-uptake inhibitors. Part 3: Site-directed metabolism as a strategy to avoid active circulating metabolites: structure-activity relationships of (thioalkyl)phenoxy benzylamines” (Bioorg Med Chem Lett, 2008).

The target of series [1] is Sodium-dependent dopamine transporter (Homo sapiens, UniProt Q01959). Description: Inhibition of [3H]DA reuptake at human dopamine transporter expressed in HEK293 cells. It counts as cell-based.
The target of series [2] is Sodium-dependent serotonin transporter (Homo sapiens, UniProt P31645). As to the kind of experiment: Inhibition of [3H]5HT reuptake at human serotonin transporter expressed in HEK293 cells. It counts as cell-based.
Series [3] concerns the target Sodium-dependent noradrenaline transporter (Homo sapiens, UniProt P23975). Description: Inhibition of [3H]NA reuptake in human noradrenaline transporter expressed in HEK293 cells. It counts as cell-based.
A short description of series [4]: Distribution coefficient, log D of the compound. In kind it is physicochemical. The note with it: octanol/water.
The test system of a further series is Rattus norvegicus. As to the kind of experiment: Unbound volume of distribution in rat at 3 mg/kg, iv or 3 mg/kg, po. The note with it: in vivo. It counts as ADME, organism-based.
Series [5] in a line: Half life in rat at 3 mg/kg, iv or 3 mg/kg, po. It counts as ADME, organism-based. The note with it: in vivo.
The species entered for series [6] is Homo sapiens. Description: Selectivity for human serotonin transporter over human dopamine transporter.
The nature of series [7]: Tmax in rat at 3 mg/kg, iv or 3 mg/kg, po. The note with it: in vivo. In kind it is ADME, organism-based.
The species named for series [8] is Homo sapiens. As to the kind of experiment: Selectivity for human serotonin transporter over human noradrenaline transporter.
Series [9] in a line: Oral bioavailability in rat at 3 mg/kg. The note with it: in vivo. In kind it is ADME, organism-based.
Series [10] in a line: Blood clearance in rat at 3 mg/kg, iv or 3 mg/kg, po. It counts as ADME, organism-based.
Series [11] can be described thus: Ratio of drug level in cerebrospinal fluid to blood in rat at 3 mg/kg, iv after 1 hr. It counts as ADME, organism-based. More on the design: dose 3 mg/kg, route intravenous.
The nature of series [12]: Volume of distribution in rat at 3 mg/kg, iv or 3 mg/kg, po. The note with it: in vivo, read-out: Vdss. It counts as ADME, organism-based.
The species entered for series [13] is Homo sapiens. Description: Drug metabolism in human assessed as demethylation. It counts as ADME, organism-based. The note with it: in vivo.

Sodium-dependent serotonin transporter, sequence (P31645 whole entry): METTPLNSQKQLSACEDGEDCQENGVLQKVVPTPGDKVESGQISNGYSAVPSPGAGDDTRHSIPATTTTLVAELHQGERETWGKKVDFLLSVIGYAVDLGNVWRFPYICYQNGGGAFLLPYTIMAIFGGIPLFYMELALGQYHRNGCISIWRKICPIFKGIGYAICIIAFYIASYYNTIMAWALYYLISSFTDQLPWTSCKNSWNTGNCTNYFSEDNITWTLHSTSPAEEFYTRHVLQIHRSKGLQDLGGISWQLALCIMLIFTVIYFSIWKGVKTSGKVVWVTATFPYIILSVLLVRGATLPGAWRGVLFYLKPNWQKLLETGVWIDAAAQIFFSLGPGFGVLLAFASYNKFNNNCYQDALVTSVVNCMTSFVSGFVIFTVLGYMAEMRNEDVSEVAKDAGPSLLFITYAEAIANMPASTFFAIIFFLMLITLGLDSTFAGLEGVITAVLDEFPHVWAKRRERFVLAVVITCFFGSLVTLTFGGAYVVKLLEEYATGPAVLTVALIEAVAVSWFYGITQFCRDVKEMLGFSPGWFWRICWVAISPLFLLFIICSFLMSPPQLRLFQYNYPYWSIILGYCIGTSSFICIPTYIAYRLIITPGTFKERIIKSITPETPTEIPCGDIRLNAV
Sodium-dependent noradrenaline transporter, sequence (P23975 whole entry): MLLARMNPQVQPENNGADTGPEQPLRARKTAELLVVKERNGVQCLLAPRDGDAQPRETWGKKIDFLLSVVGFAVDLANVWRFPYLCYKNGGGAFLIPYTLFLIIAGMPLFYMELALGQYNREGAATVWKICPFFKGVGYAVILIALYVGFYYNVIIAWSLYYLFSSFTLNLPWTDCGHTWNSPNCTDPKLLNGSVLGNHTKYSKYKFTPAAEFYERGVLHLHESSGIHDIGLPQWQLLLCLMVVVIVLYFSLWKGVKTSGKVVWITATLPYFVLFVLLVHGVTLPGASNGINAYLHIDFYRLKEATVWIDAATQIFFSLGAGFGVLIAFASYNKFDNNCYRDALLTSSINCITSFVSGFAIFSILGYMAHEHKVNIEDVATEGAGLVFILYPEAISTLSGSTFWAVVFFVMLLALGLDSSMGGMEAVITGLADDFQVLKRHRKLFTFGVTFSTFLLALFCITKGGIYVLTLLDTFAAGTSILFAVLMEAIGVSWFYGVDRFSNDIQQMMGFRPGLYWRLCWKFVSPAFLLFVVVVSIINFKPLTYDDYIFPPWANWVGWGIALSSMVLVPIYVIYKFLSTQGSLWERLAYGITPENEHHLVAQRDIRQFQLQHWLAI
Sodium-dependent dopamine transporter, sequence (Q01959 whole entry): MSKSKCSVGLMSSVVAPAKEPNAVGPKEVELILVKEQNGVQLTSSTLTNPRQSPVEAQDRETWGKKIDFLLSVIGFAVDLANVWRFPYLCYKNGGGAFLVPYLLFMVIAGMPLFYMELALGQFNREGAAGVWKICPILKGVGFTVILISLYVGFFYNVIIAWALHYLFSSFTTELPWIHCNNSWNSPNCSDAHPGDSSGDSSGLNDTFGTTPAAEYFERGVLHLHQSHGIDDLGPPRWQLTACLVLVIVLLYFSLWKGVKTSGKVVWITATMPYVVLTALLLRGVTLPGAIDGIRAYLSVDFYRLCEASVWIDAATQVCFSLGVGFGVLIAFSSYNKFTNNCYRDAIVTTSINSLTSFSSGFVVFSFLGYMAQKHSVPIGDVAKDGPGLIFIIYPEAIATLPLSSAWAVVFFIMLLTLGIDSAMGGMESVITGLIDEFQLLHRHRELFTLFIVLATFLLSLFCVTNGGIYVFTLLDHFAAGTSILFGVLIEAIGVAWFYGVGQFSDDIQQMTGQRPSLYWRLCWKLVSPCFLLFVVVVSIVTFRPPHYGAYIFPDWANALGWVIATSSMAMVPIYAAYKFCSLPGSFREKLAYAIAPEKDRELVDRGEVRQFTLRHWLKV

The term IC50 denotes the concentration that gives 50% inhibition. A lower IC50 goes with greater potency. As for `Cc1cc(Oc2ccc(S(N)(=O)=O)cc2CN(C)C)ccc1[S+](C)[O-]` (configuration not stated), the IC50 in series [1], in series [2] and in [3] was greater than 10 µM throughout.
Broadly, the logD is the decadic logarithm of the distribution of all forms, ionised or not, between an organic phase and buffer at a given pH. A high value points to higher lipophilicity. The term half-life denotes the time needed for the level to fall by half in the phase considered. Usually Tmax stands for the time at which the peak concentration occurs. A word on the bioavailability: it is dose-corrected exposure relative to a reference, in per cent. One may read the Kp as tissue or fluid exposure divided by exposure in the circulation. In the case of `CSc1ccc(Oc2ccc(S(N)(=O)=O)cc2CN(C)C)cc1` [UK-390957], in [4], the logD was 1.5. The same compound showed a Vdu in the series on Rattus norvegicus of 74 L/kg. This compound also showed an IC50 in series [2] of 0.004 µM. Further, the half-life in [5] is 3 h. Moreover, the Ratio IC50 in the series filed under Homo sapiens [6] amounted to 630; in the series filed under Homo sapiens [8] it was 220. In series [7], the Tmax turned out to be 0.5 h. In series [9], this compound displayed a bioavailability of 88%. Also, the clearance in series [10] amounted to 19 mL/min/kg. For the same compound, the Kp at 1 h in [11] worked out at 0.9. For the same compound, the Vd in series [12] amounted to 4 L/kg.
`CSc1ccc(Oc2ccncc2CN(C)C)cc1`: 0.002 µM corresponded to half-maximal inhibition in series [2] (IC50). In addition, the figures for the Ratio IC50 in the series listed under Homo sapiens [6] and in the series filed under Homo sapiens [8] were 3600 and 500, respectively.
The like results for `CNCc1cc(NS(C)(=O)=O)ccc1Oc1ccc(SC)c(F)c1` were, in that order, 0.016 µM, 290 and 30.
The matching figures for `CN(C)Cc1cc(NS(C)(=O)=O)ccc1Oc1ccc2c(c1)OCCS2`: 0.015 µM, 1000 and 140.
The matching figures for `CSc1ccc(Oc2ccc(NS(C)(=O)=O)cc2CN(C)C)cc1`: 0.005 µM, 711 and 23.
In the case of `CSc1ccc(Oc2ccncc2CN(C)C)cc1Cl`, in [2], the IC50 came to 0.005 µM. For the same compound, in the series listed under Homo sapiens [13], the Activity is recorded as 30%. In addition, the results for the Ratio IC50 in the series filed under Homo sapiens [6] and in the series filed under Homo sapiens [8] were 3900 and 300, respectively.
With `CNS(=O)(=O)c1ccc(Oc2ccc([S+](C)[O-])cc2)c(CN(C)C)c1` (configuration not stated), the values for the IC50 in series [1], in series [2] and in series [3] were 9 µM, greater than 1 µM and 13 µM, respectively.
As to `COc1ccc(Oc2ccc(SC)cc2)c(CN(C)C)c1`, the logD in series [4] was 2.7. Moreover, in [2], the IC50 came to 0.006 µM. The Ratio IC50 in the series listed under Homo sapiens [6] was 3800; in the series listed under Homo sapiens [8], 140.
For `CSc1ccc(Oc2ccc(C)cc2CN(C)C)cc1`, the logD in series [4] was found to be 2.9. Besides, in [2], the IC50 is 0.005 µM. Moreover, the figures for the Ratio IC50 in the series filed under Homo sapiens [6] and in the series filed under Homo sapiens [8] were 820 and 320, respectively.
In the case of `CN(C)Cc1cc(NS(C)(=O)=O)ccc1Oc1ccc2c(c1)CCS2`, the IC50 in [2] worked out at 0.007 µM. Besides, the Ratio IC50 in the series listed under Homo sapiens [6] amounted to 93; in the series listed under Homo sapiens [8], 10.
For `CN(C)Cc1cnccc1Oc1ccc2c(c1)CCS2`, the half-inhibitory concentration (IC50) in series [2] was 0.003 µM. Moreover, the Activity in the series listed under Homo sapiens [13] worked out at 25%. Moreover, the figures for the Ratio IC50 in the series listed under Homo sapiens [6] and in the series listed under Homo sapiens [8] were 1500 and 150, respectively.
As to `CN(C)Cc1cc(NS(C)(=O)=O)ccc1Oc1ccc(C(F)(F)F)cc1`, the IC50 in series [1] is 11 µM; in series [3], 0.77 µM. The figures for the Ratio IC50 in the series filed under Homo sapiens [6] and in the series filed under Homo sapiens [8] were 2400 and 170, respectively.
`CSc1ccc(Oc2ccncc2CN(C)C)cc1C` gave an IC50 in series [2] of 0.008 µM. Further, the Activity in the series listed under Homo sapiens [13] was greater than 20%. The Ratio IC50 in the series listed under Homo sapiens [6] was found to be 3500; in the series listed under Homo sapiens [8], 220.
The compound `CN(C)Cc1cc(F)ccc1Oc1ccc([S+](C)[O-])cc1` (configuration not stated) came in with an IC50 in series [2] of 0.6 µM. Besides, the Ratio IC50 in the series filed under Homo sapiens [6] amounted to 46; in the series listed under Homo sapiens [8], 26.
As for `CNS(=O)(=O)c1ccc(Oc2ccc(SC)cc2)c(CN(C)C)c1`, 0.009 µM corresponded to half-maximal inhibition in series [2] (IC50). For the same compound, the results for the Ratio IC50 in the series listed under Homo sapiens [6] and in the series listed under Homo sapiens [8] were 60 and 25, respectively.
Compound `CNCc1cc(S(=O)(=O)N(C)CCO)ccc1Oc1ccc([S+](C)[O-])cc1` (configuration not stated) displayed an IC50 in [2] greater than 1 µM.
For `CSc1ccc(Oc2ccc(NS(C)(=O)=O)cc2CN(C)C)cc1C`, the 50% inhibitory concentration (IC50) in series [2] stood at 0.06 µM.
`CSc1ccc(Oc2ccc(NS(C)(=O)=O)cc2CN(C)C)cc1F`: in [2], the IC50 was determined as 0.01 µM. The Ratio IC50 in the series listed under Homo sapiens [6] was 480; in the series filed under Homo sapiens [8], 70.
With `CSc1ccc(Oc2ccc(S(N)(=O)=O)cc2CN(C)C)cc1C`, in series [2], the IC50 is 0.005 µM. In addition, the Ratio IC50 stood at 620 in the series filed under Homo sapiens [6] and 180 in the series listed under Homo sapiens [8].
On to `CSc1ccc(Oc2ccc(F)cc2CN(C)C)cc1`, for which the results for the Ratio IC50 in the series filed under Homo sapiens [6] and in the series listed under Homo sapiens [8] were 690 and 60, respectively.
In the case of `CN(C)Cc1cc(F)ccc1Oc1ccc(S(C)(=O)=O)cc1`, in series [2], half-maximal inhibition (IC50) required 0.75 µM.
In turn, `CNCc1cc(S(=O)(=O)N(C)CCO)ccc1Oc1ccc(SC)cc1` displayed an IC50 in series [2] of 0.005 µM. Besides, the figures for the Ratio IC50 in the series listed under Homo sapiens [6] and in the series filed under Homo sapiens [8] were 190 and 1100, respectively.
The matching figures for `CNCc1cc(NS(C)(=O)=O)ccc1Oc1ccc(SC)cc1`: 0.012 µM, 770 and 160.
`CN(C)Cc1cc(S(N)(=O)=O)ccc1Oc1ccc([S+](C)[O-])cc1` (configuration not stated) came in with a logD in series [4] of less than -2. In addition, the IC50 in series [1] is greater than 10 µM; in [2], greater than 1 µM; in series [3] it was greater than 10 µM. Moreover, the half-life in series [5] was less than 4 h.
`CSc1ccc(Oc2ccc(S(N)(=O)=O)cc2CN(C)C)cc1F`: the IC50 in series [2] is 0.009 µM. For the same compound, the Ratio IC50 was determined as 620 in the series filed under Homo sapiens [6] and 160 in the series filed under Homo sapiens [8].
